This note sets out measurements from ChEMBL document CHEMBL4393656, “Cationic biaryl 1,2,3-triazolyl peptidomimetic amphiphiles targeting Clostridioides (Clostridium) difficile: Synthesis, antibacterial evaluation and an in vivo C. difficile infection model” (Eur J Med Chem, 2019).

The structures appear in SMILES notation. The source made the active and inactive calls. No cut-off for these calls is given here. Some results are limits rather than exact numbers.

Series [1] in a line: Drug accumulation in feces of antibiotic cocktail-induced CDI C57BL/6J mouse model infected with Clostridium difficile ribotype 027 M7404 spores at 100 mg/kg administered via oral gavage for every 12 hrs starting from 6 hrs post-infection by LRMS analysis. The class given is ADME, organism-based. The following applies: in vivo.
Series [2] relates to Clostridioides difficile. As to the kind of experiment: Antibacterial activity against Clostridium difficile ATCC 700057 incubated for 2 to 4 hrs in pre-reduced brucella broth supplemented with haemin/vitamin K and further incubation in anaerobic condition for 48 hrs. The class given is functional.
Series [3] is described as follows: Drug localization in blood of C57BL/6J mouse measured after 2 hr by LRMS analysis. Type of series: ADME, tissue-based.
The subject of series [4] is Clostridioides difficile. The series is described as follows: Antibacterial activity against Clostridium difficile ribotype 027 M7404 spores infected in antibiotic cocktail-induced CDI C57BL/6J mouse model assessed as decrease in diarrhea at 100 mg/kg administered via oral gavage for every 12 hrs starting from 6 hrs post-infection and measured at 24 hrs post infection. Type of series: functional, organism-based. The conditions noted are these: genomovar ribotype 027 M7404.

For series [5], the system named is Clostridioides difficile. As to the kind of experiment: Antibacterial activity against Clostridium difficile ribotype 027 M7404 spores infected in antibiotic cocktail-induced CDI C57BL/6J mouse model assessed as survival rate at 100 mg/kg administered via oral gavage for every 12 hrs starting from 6 hrs post-infection and measured at 24 hrs post infection (reference value: 0%). The class given is functional, genomovar ribotype 027 M7404.

Series [6] in a line: Drug accumulation in blood of antibiotic cocktail-induced CDI C57BL/6J mouse model infected with Clostridium difficile ribotype 027 M7404 spores at 100 mg/kg administered via oral gavage for every 12 hrs starting from 6 hrs post-infection by LRMS analysis. The class given is ADME, organism-based. The conditions noted are these: in vivo.
A short description of series [7]: Solubility of the compound in 10% DMSO solution. The class given is physicochemical.
The nature of series [8]: Haemolytic activity in sheep erythrocytes assessed as induction of haemolysis at 50 ug/ml incubated for 2 hrs relative to control. The class given is cell-based, Ovis aries, Erythrocyte. The conditions noted are these: read-out: Activity.
A further series deals with Acinetobacter baumannii. As to the kind of experiment: Growth inhibition of Acinetobacter baumannii ATCC 19606 incubated for 18 hrs without shaking by absorbance based monochromator plate reader analysis. Type of series: organism-based, ATCC 19606 = CIP 70.34 = JCM 6841. The following applies: in vitro.
A further series has as its system Streptococcus pneumoniae. As to the kind of experiment: Growth inhibition of Streptococcus pneumoniae ATCC 49619 incubated in MHB medium with lysed horse blood and 5% CO2 for 24 hrs. The class given is organism-based.
Series [9] relates to Clostridioides difficile. The series is described as follows: Antibacterial activity against Clostridium difficile ribotype 027 M7404 spores infected in antibiotic cocktail-induced CDI C57BL/6J mouse model assessed as protection against bacterial infection at 100 mg/kg administered via oral gavage for every 12 hrs starting from 6 hrs post-infection and measured at 2 days post infection. The class given is functional, organism-based. The conditions noted are these: genomovar ribotype 027 M7404.

Series [10] deals with Clostridioides difficile. The series is described as follows: Antibacterial activity against Clostridium difficile ribotype 027 M7404. The class given is functional. The following applies: genomovar ribotype 027 M7404.
Another series has as its system Enterococcus faecalis. As to the kind of experiment: Growth inhibition of Enterococcus faecalis ATCC 29212 incubated in MHB broth for 24 hrs. The class given is organism-based.
A further series deals with Klebsiella pneumoniae. The series is described as follows: Growth inhibition of Klebsiella pneumoniae ATCC 700603 incubated for 18 hrs. The class given is organism-based.
Series [11] deals with Staphylococcus aureus. The series is described as follows: Growth inhibition of methicillin-resistant Staphylococcus aureus ATCC 43300 incubated for 18 hrs. Type of series: organism-based.
Series [12] deals with Clostridioides difficile. As to the kind of experiment: Antibacterial activity against Clostridium difficile ribotype 027 M7404 spores infected in antibiotic cocktail-induced CDI C57BL/6J mouse model assessed as decrease in physiological appearance score at 100 mg/kg administered via oral gavage for every 12 hrs starting from 6 hrs post-infection and measured at 24 hrs post infection. Type of series: functional, organism-based. The following applies: genomovar ribotype 027 M7404.

Series [13] in a line: Cytotoxicity against HEK293 cells assessed as decrease in cell viability after 20 hrs by resazurin dye-based fluorescence assay. The following applies: human.
Series [14] deals with Clostridioides difficile. As to the kind of experiment: Antibacterial activity against Clostridium difficile ribotype 027 M7404 spores infected in antibiotic cocktail-induced CDI C57BL/6J mouse model assessed as decrease in weight loss at 100 mg/kg administered via oral gavage for every 12 hrs starting from 6 hrs post-infection and measured at 24 hrs post infection. The class given is functional, organism-based. The conditions noted are these: genomovar ribotype 027 M7404.

For another series, the system named is Pseudomonas aeruginosa. The series is described as follows: Growth inhibition of Pseudomonas aeruginosa ATCC 27853 incubated for 18 hrs. Type of series: organism-based.
Series [15] deals with Staphylococcus aureus. As to the kind of experiment: Growth inhibition of Staphylococcus aureus ATCC 29213 incubated in MHB broth for 24 hrs. Type of series: organism-based.
A short description of series [16]: Haemolytic activity in sheep erythrocytes assessed as induction of haemolysis at 5 ug/ml incubated for 2 hrs relative to control. The class given is cell-based, Ovis aries, Erythrocyte. The following applies: read-out: Activity.
Series [17] concerns Clostridioides difficile. As to the kind of experiment: Antibacterial activity against Clostridium difficile NSW132 RT027 incubated for 2 to 4 hrs in pre-reduced brucella broth supplemented with haemin/vitamin K and further incubation in anaerobic condition for 48 hrs. The class given is functional.
The next series concerns Escherichia coli. The series is described as follows: Growth inhibition of Escherichia coli ATCC 25922 incubated for 18 hrs. The class given is organism-based.
The nature of series [18]: Aqueous solubility of the DMSO-dissolved compound in >200 uL water at 5 mg. The following applies: buffer. Type of series: physicochemical.

In the case of `CC(C)CCOc1ccc2ccccc2c1-c1c(OCc2cn(C[C@@H](CCCCN)NC(=O)[C@@H](CCCNC(=N)N)NC(=O)CCc3ccccc3)nn2)ccc2ccccc12.Cl.Cl`, the Drug uptake entry in series [1] is given as “Active”; in series [3], “Not Active”; in [6] it was “Not Active”. Moreover, in the series on Clostridioides difficile [2], the MIC was 8 µg/mL. In addition, in the series with Clostridioides difficile [4], the result was Active. Further, the Activity in the series with Clostridioides difficile [5] was 50%.

In the series with Clostridioides difficile [2], `CC(C)CCOc1ccc2ccccc2c1-c1c(OCC(=O)N[C@H](CCCNC(=N)N)Cn2cc(-c3ccccc3)nn2)ccc2ccccc12.Cl` came in with an MIC of 8 µg/mL. The solubility result in series [7] is listed as “Insoluble”. Besides, in series [8], the hemolysis at 2 h, 50 ug/ml amounted to 86%.

Take `CC(C)CCOc1ccc2ccccc2c1-c1c(OCC(=O)N[C@H](CCCNC(=N)N)C(=O)NCc2ccccc2)ccc2ccccc12.Cl`: the MIC against Clostridioides difficile [2] was 8 µg/mL; in the series on Acinetobacter baumannii it was more than 32 µg/mL; with Streptococcus pneumoniae it was 2 µg/mL; in the series on Clostridioides difficile [10], 2 µg/mL; against Enterococcus faecalis, 2 µg/mL; against Klebsiella pneumoniae it was more than 32 µg/mL. The MIC in the series on Staphylococcus aureus [11] is 4 µg/mL; in the series with Pseudomonas aeruginosa, more than 32 µg/mL; against Staphylococcus aureus [15], 2 µg/mL; with Clostridioides difficile [17] it was 8 µg/mL; in the series with Escherichia coli it was more than 32 µg/mL. For the same compound, the result with Clostridioides difficile [9], in the series with Clostridioides difficile [12], in the series on Clostridioides difficile [4] and in the series with Clostridioides difficile [14] was inactive. The hemolysis at 2 h, 50 ug/ml in series [8] was found to be 100%. Also, the CC50 at 20 h in series [13] was more than 32 µg/mL. Also, the hemolysis at 2 h, 5 ug/ml in series [16] stood at 0.3%.

Consider `CC(C)CCOc1ccccc1-c1ccccc1OCc1cn([C@H](CCCCN)C(=O)NCC2CCCCC2)nn1.Cl`, for which the MIC is 16 µg/mL with Clostridioides difficile [2]; 32 µg/mL in the series with Acinetobacter baumannii; 8 µg/mL in the series on Streptococcus pneumoniae; 8 µg/mL against Enterococcus faecalis; more than 32 µg/mL in the series with Klebsiella pneumoniae; 8 µg/mL against Staphylococcus aureus [11]. Further, the MIC in the series on Pseudomonas aeruginosa was more than 32 µg/mL; in the series on Staphylococcus aureus [15], 8 µg/mL; against Clostridioides difficile [17], 32 µg/mL; against Escherichia coli, more than 32 µg/mL. Moreover, the solubility result in series [18] was “Soluble”. Moreover, in series [8], the hemolysis at 2 h, 50 ug/ml stood at 98%. The cytotoxic concentration (CC50) at 20 h in [13] was 5.6 µg/mL. The hemolysis at 2 h, 5 ug/ml in series [16] amounted to 0%.

What is called CC50 is the concentration that lowers cell viability or growth by half.
